The nature of data set [1]: Freeze-thaw stability in spiked pooled human plasma. The format is physicochemical.
Details of data set [2]: method as in supplement references [1-55] as printed per drug. The conditions noted are these: minimum steady-state blood plasma concentration after multiple dose administration; ref supplement references [1-55] per drug; cited from earlier work.

Consider `CCN1CCN(Cc2ccc(Nc3ncc(F)c(-c4cc(F)c5nc(C)n(C(C)C)c5c4)n3)nc2)CC1` [Abemaciclib], for which the “Freeze-Thaw Accuracy [%]” value in data set [1] (validation standard 2xLLOV) was 96.4%; in data set [1] (validation standard LLOV), 90.4%; in data set [1] (validation standard MOV), 102.7%; in data set [1] (validation standard ULOV), 105.3%. Besides, the “cmin” value in data set [2] was 181 ng/mL.
In the case of `CN(C)C/C=C/C(=O)Nc1cc2c(Nc3ccc(F)c(Cl)c3)ncnc2cc1O[C@H]1CCOC1` [Afatinib], the “Freeze-Thaw Accuracy [%]” value in data set [1] (validation standard 2xLLOV) amounted to 100.0%; in data set [1] (validation standard LLOV), 93.5%; in data set [1] (validation standard MOV), 96.1%; in data set [1] (validation standard ULOV) it was 95.0%. Further, the “cmin” value in data set [2] was 14.4 ng/mL.
Regarding `O=C1CN2Cc3c(ccc(Cl)c3Cl)N=C2N1` [Anagrelide], the “Freeze-Thaw Accuracy [%]” value in data set [1] (validation standard 2xLLOV) worked out at 96.5%; in data set [1] (validation standard LLOV), 92.8%; in data set [1] (validation standard MOV) it was 93.8%; in data set [1] (validation standard ULOV), 99.6%.
In the case of `CNC(=O)c1ccc(N2C(=S)N(c3cnc(C#N)c(C(F)(F)F)c3)C(=O)C23CCC3)cc1F` [Apalutamide], the “Freeze-Thaw Accuracy [%]” value in data set [1] (validation standard 2xLLOV) came out at 95.6%; in data set [1] (validation standard LLOV) it was 93.8%; in data set [1] (validation standard MOV), 94.8%; in data set [1] (validation standard ULOV), 95.7%. For the same compound, the “cmin” value in data set [2] is given as 3700 ng/mL.
Regarding `Cn1cnc2c(F)c(Nc3ccc(Br)cc3F)c(C(=O)NOCCO)cc21` [Binimetinib], the “Freeze-Thaw Accuracy [%]” value in data set [1] (validation standard 2xLLOV) was 92.6%; in data set [1] (validation standard LLOV), 93.8%; in data set [1] (validation standard MOV), 100.1%; in data set [1] (validation standard ULOV) it was 105.2%. In data set [2], the “cmin” value is 53.3 ng/mL.
`Cc1cc(Nc2ncc(Cl)c(Nc3ccccc3S(=O)(=O)C(C)C)n2)c(OC(C)C)cc1C1CCNCC1` [Ceritinib]: the “Freeze-Thaw Accuracy [%]” value is given as 96.9% in data set [1] (validation standard 2xLLOV), 99.9% in data set [1] (validation standard LLOV), 97.6% in data set [1] (validation standard MOV) and 97.5% in data set [1] (validation standard ULOV). For the same compound, in data set [2], the “cmin” value is 871 ng/mL.
Turning to `O=C(c1ccc(F)c(F)c1Nc1ccc(I)cc1F)N1CC(O)([C@@H]2CCCCN2)C1` [Cobimetinib], the “Freeze-Thaw Accuracy [%]” value was found to be 98.6% in data set [1] (validation standard 2xLLOV), 98.3% in data set [1] (validation standard LLOV), 97.3% in data set [1] (validation standard MOV) and 96.3% in data set [1] (validation standard ULOV). In data set [2], the “cmin” value is on record as 127 ng/mL.
As for `C[C@@H](Oc1cc(-c2cnn(C3CCNCC3)c2)cnc1N)c1c(Cl)ccc(F)c1Cl` [Crizotinib], the “Freeze-Thaw Accuracy [%]” value was 94.8% in data set [1] (validation standard 2xLLOV), 72.2% in data set [1] (validation standard LLOV), 102.4% in data set [1] (validation standard MOV) and 92.4% in data set [1] (validation standard ULOV). The “cmin” value in data set [2] is 274 ng/mL.
For the compound `COc1cc2ncnc(Nc3ccc(F)c(Cl)c3)c2cc1NC(=O)/C=C/CN1CCCCC1` [Dacomitinib], the “Freeze-Thaw Accuracy [%]” value in data set [1] (validation standard 2xLLOV) was determined as 92.5%; in data set [1] (validation standard LLOV), 89.8%; in data set [1] (validation standard MOV) it was 95.9%; in data set [1] (validation standard ULOV), 96.3%. Moreover, the “cmin” value in data set [2] was 73.1 ng/mL.
Consider `Cc1nc(Nc2ncc(C(=O)Nc3c(C)cccc3Cl)s2)cc(N2CCN(CCO)CC2)n1` [Dasatinib], for which the “Freeze-Thaw Accuracy [%]” value in data set [1] (validation standard 2xLLOV) came out at 99.1%; in data set [1] (validation standard LLOV), 108.8%; in data set [1] (validation standard MOV) it was 99.1%; in data set [1] (validation standard ULOV) it was 102.2%. In addition, in data set [2], the “cmin” value is 2.61 ng/mL.
As for `COC(=O)N[C@@H](C)CNc1nccc(-c2cn(C(C)C)nc2-c2cc(Cl)cc(NS(C)(=O)=O)c2F)n1` [Encorafenib], the “Freeze-Thaw Accuracy [%]” value in data set [1] (validation standard 2xLLOV) worked out at 94.9%; in data set [1] (validation standard LLOV), 90.4%; in data set [1] (validation standard MOV) it was 101.4%; in data set [1] (validation standard ULOV), 98.7%. Also, the “cmin” value in data set [2] is listed as 23 ng/mL.
With `C#Cc1cccc(Nc2ncnc3cc(OCCOC)c(OCCOC)cc23)c1` [Erlotinib], the “Freeze-Thaw Accuracy [%]” value in data set [1] (validation standard 2xLLOV) came to 100.9%; in data set [1] (validation standard LLOV) it was 113.3%; in data set [1] (validation standard MOV) it was 100.4%; in data set [1] (validation standard ULOV), 102.0%. The “cmin” value in data set [2] is given as 1011 ng/mL.
Turning to `COc1cc2ncnc(Nc3ccc(F)c(Cl)c3)c2cc1OCCCN1CCOCC1` [Gefitinib], the “Freeze-Thaw Accuracy [%]” value in data set [1] (validation standard 2xLLOV) is on record as 97.6%; in data set [1] (validation standard LLOV), 92.4%; in data set [1] (validation standard MOV), 97.8%; in data set [1] (validation standard ULOV), 97.1%. Moreover, the “cmin” value in data set [2] was 291 ng/mL.
`CS(=O)(=O)CCNCc1ccc(-c2ccc3ncnc(Nc4ccc(OCc5cccc(F)c5)c(Cl)c4)c3c2)o1` [Lapatinib]: the “Freeze-Thaw Accuracy [%]” value in data set [1] (validation standard 2xLLOV) is given as 96.0%; in data set [1] (validation standard LLOV), 86.5%; in data set [1] (validation standard MOV), 102.3%; in data set [1] (validation standard ULOV), 94.7%. For the same compound, in data set [2], the “cmin” value is given as 780 ng/mL.
With `Nc1cccc2c1CN(C1CCC(=O)NC1=O)C2=O` (stereo not shown) [Lenalidomide], the “Freeze-Thaw Accuracy [%]” value in data set [1] (validation standard 2xLLOV) stood at 104.4%; in data set [1] (validation standard LLOV), 91.0%; in data set [1] (validation standard MOV), 97.3%; in data set [1] (validation standard ULOV), 96.8%. Besides, in data set [2], the “cmin” value is 13 ng/mL.
`C[C@H]1Oc2cc(cnc2N)-c2c(nn(C)c2C#N)CN(C)C(=O)c2ccc(F)cc21` [Lorlatinib]: the “Freeze-Thaw Accuracy [%]” value in data set [1] (validation standard 2xLLOV) turned out to be 95.0%; in data set [1] (validation standard LLOV), 96.0%; in data set [1] (validation standard MOV) it was 95.2%; in data set [1] (validation standard ULOV), 97.6%. Further, the “cmin” value in data set [2] is 150 ng/mL.

The values above are taken from article PMC8699473, “An Easily Expandable Multi-Drug LC-MS Assay for the Simultaneous Quantification of 57 Oral Antitumor Drugs in Human Plasma” (Cancers, 2021).
